Measured values: paper PMC11486130, “Structure-guided discovery of novel dUTPase inhibitors with anti-Nocardia activity by computational design” (Journal of Enzyme Inhibition and Medicinal Chemistry, 2024)
pIC50, pKd: −log10 of the molar value. Values after ≈ are worked out from the molar mass of the structure shown. Read-outs that look alike come from different tables or passages of the source.

Tests used:
NsdUTPase = NsdUTPase (Nocardia seriolae, UniProt A0ABF7PKI9); assay: NsdUTPase activity assay (PPi Light inorganic pyrophosphate assay kit); format: biochemical; conditions: for activity improvement: NsdUTPase IC50 compared with F0414
Experimental: The in vitro catalytic activity of NsdUTPase was detected by a PPi Light inorganic pyrophosphate assay kit following manufactory’s manual. […] After 120 min of incubation at room temperature, the luminescence intensity of the reaction was measured by a microplate luminometer at 560 nm.
IC50 was determined using GraphPad Prism software 9 (GraphPad Software, San Diego, CA). All experiments were performed in triplicate, and values (±standard deviations [SD]) are shown. Significant differences were determined using Student’s t-test. *p < 0.05 (considered significant compared with control group); **p < 0.01 (considered highly significant); ***p < 0.001 (considered extremely significant).

[1] = test system: N. seriolae strain JCM3360; assay: anti-Nocardia activity, microplate alamar blue assay (MABA); format: cell-based; conditions: two days at 25 °C; for MIC: 48 h
Experimental: (§1) The MABA method was used to determine the anti-Nocardia activity of compounds according to reported method[34] with modification. N. seriolae strain JCM3360, and N. salmonicida strain JCM4826 were gifted from Prof. Nien, Chung-Yi (National Central University, Taoyuan City, Taiwan), and cultured in M-196 medium (0.4% yeast extract; 1% malt extract; 0.4% dextrose) at 25 °C. Two strains were inoculated into 96-well plates at a concentration of ×10^6 CFU/mL and cultured in the medium, then different concentrations of compounds were added. After two days of incubation at 25 °C, the mixture of 20 μL 10× alamar blue and 50 μL 5% Tween-80 were added to observe the colour change. Minimum inhibitory concentration (MIC) is defined as the minimum compound concentration of the well varying from blue to pink.

[2] = test system: N. salmonicida strain JCM4826; assay: as above; format: cell-based; conditions: two days at 25 °C; for MIC: 48 h
Experimental: as §1

[3] = Cytotoxicity, CCK-8 assay; format: cell-based; conditions: concentration 30 µM (about 10.0 mg/L), read-out: cell viability
Experimental: The cytotoxicity of compounds 4b and 12b was determined by CCK-8 assay. A549 and Marc cells were cultured for the test. Concentrations of compounds varied from 0.03 to 30 µM. Meanwhile, 1% DMSO was used as a negative control. After incubation for 24 h, WST-8 was added. The experimental method referred to the kit instructions. All the experiments were repeated three times.

NsdUTPase WT = molecular target: T1, NsdUTPase WT (Nocardia seriolae, UniProt A0ABF7PKI9); assay: Kd to WT NsdUTPase; format: binding, N. seriolae
T1 sequence (A0ABF7PKI9 1-166): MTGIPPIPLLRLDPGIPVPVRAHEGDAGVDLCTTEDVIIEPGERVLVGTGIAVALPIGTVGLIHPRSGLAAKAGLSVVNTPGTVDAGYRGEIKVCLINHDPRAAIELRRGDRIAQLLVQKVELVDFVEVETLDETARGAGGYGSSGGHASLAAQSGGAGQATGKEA

[4] = in vitro enzyme inhibitory activity, read-out: IC50 against NsdUTPase
[5] = African green monkey, Marc cells

| Compound | pIC50 (NsdUTPase; [4]) | MIC [1] [µg/mL] | MIC [2] [µg/mL] | other results |
| --- | --- | --- | --- | --- |
| 1-(Cyclopropylmethyl)-2-(4-phenoxyphenyl)-5-(trifluoromethyl)-1H-benzo[d]imidazole [12f] | < 4.70 | – | – | MIC N. seriolae [1]: 16 µg/mL; MIC N. salmonicida [2]: 8 µg/mL |
| 1-Allyl-6-fluoro-5-methyl-2-(6-phenoxypyridin-3-yl)-1H-benzo[d]imidazole [12i] | 5.11 | – | – | MIC N. seriolae [1]: 4 µg/mL; MIC N. salmonicida [2]: 4 µg/mL |
| C=CCn1c(/C=C/c2ccccc2)nc2cc(C(F)(F)F)ccc21 [4b, (E)-1-Allyl-2-styryl-5-(trifluoromethyl)-1H-benzo[d]imidazole] | – | 1 (≈ 3.05 µM) | 0.5 (≈ 1.52 µM) | pIC50 (NsdUTPase): 6.00; activity improvement (NsdUTPase): more than 20 fold; viability at 24 h, 30 µM [3, 5]: > 70%; viability at 24 h, 30 µM ([3]; human, A549 cells): > 70%; pKd (NsdUTPase WT): 4.99 |
| C=CCn1c(/C=C/c2ccccc2)nc2c(C)cccc21 [4d, (E)-1-Allyl-4-methyl-2-styryl-1H-benzo[d]imidazole] | < 4.70 | 16 (≈ 58.3 µM) | 16 (≈ 58.3 µM) | – |
| C=CCn1c(/C=C/c2ccccc2)nc2cc(C#N)ccc21 [4e, (E)-1-Allyl-2-styryl-1H-benzo[d]imidazole-5-carbonitrile] | < 4.70 | > 50 | 16 (≈ 56.1 µM) | – |
| C=CCn1c(/C=C/c2ccc(N(C)C)cc2)nc2ccccc21 [4g, (E)-4-(2-(1-Allyl-1H-benzo[d]imidazol-2-yl)vinyl)-N,N-dimethylaniline] | 5.53 | > 50 | 16 (≈ 52.7 µM) | – |
| C=CCn1c(/C=C/c2ccccc2)nc2cc(C(=O)c3ccccc3)ccc21 [4h, (E)-(1-Allyl-2-styryl-1H-benzo[d]imidazol-5-yl)(phenyl)methanone] | 5.02 | 8 (≈ 22 µM) | 8 (≈ 22 µM) | – |
| C=CCn1c(/C=C/c2ccccc2OC)nc2cc(C(=O)c3ccccc3)ccc21 [4i, (E)-(1-Allyl-2-(2-methoxystyryl)-1H-benzo[d]imidazol-5-yl)(phenyl)methanone] | 5.12 | 8 (≈ 20.3 µM) | 4 (≈ 10.1 µM) | – |
| C=CCn1c(-c2ccc(Oc3ccccc3)cc2)nc2ccccc21 [8a, 1-Allyl-2-(4-phenoxyphenyl)-1H-benzo[d]imidazole] | 5.58 | 4 (≈ 12.3 µM) | 4 (≈ 12.3 µM) | – |
| C=CCn1c(-c2ccc(-c3ccccc3)cc2)nc2ccccc21 [8b, 2-([1,1′-Biphenyl]-4-yl)-1-allyl-1H-benzo[d]imidazole] | – | 4 (≈ 12.9 µM) | 4 (≈ 12.9 µM) | – |
| C=CCn1c(/C(C)=C/c2ccccc2)nc2ccccc21 [8c, (E)-1-Allyl-2-(1-phenylprop-1-en-2-yl)-1H-benzo[d]imidazole] | < 4.70 | 8 (≈ 29.2 µM) | 4 (≈ 14.6 µM) | – |
| C=CCn1c(-c2cccc(Oc3ccccc3)c2)nc2ccccc21 [8d, 1-Allyl-2-(3-phenoxyphenyl)-1H-benzo[d]imidazole] | 4.80 | > 50 | 32 (≈ 98 µM) | – |
| C=CCn1c(-c2ccc3ccccc3c2)nc2ccccc21 [8e, 1-Allyl-2-(naphthalen-2-yl)-1H-benzo[d]imidazole] | 4.98 | 4 (≈ 14.1 µM) | 4 (≈ 14.1 µM) | – |
| C=CCn1c(-c2ccc(Oc3ccccc3)cc2)nc2cc(C(F)(F)F)ccc21 [12a, 1-Allyl-2-(4-phenoxyphenyl)-5-(trifluoromethyl)-1H-benzo[d]imidazole] | 5.08 | > 50 | 16 (≈ 40.6 µM) | – |
| C=CCn1c(-c2ccc(Oc3ccccc3)cc2)nc2cc(C)ccc21 [12b, 1-Allyl-5-methyl-2-(4-phenoxyphenyl)-1H-benzo[d]imidazole] | – | 2 (≈ 5.87 µM) | 1 (≈ 2.94 µM) | pIC50 (NsdUTPase): 6.15; activity improvement (NsdUTPase): more than 20 fold; viability at 24 h, 30 µM [3, 5]: > 70%; viability at 24 h, 30 µM ([3]; human, A549 cells): > 70%; pKd (NsdUTPase WT): 5.13 |
| C=CCn1c(-c2ccc(Oc3ccccc3)cc2)nc2cc(C(=O)c3ccccc3)ccc21 [12c, (1-Allyl-2-(4-phenoxyphenyl)-1H-benzo[d]imidazol-5-yl)(phenyl)methanone] | 4.81 | 16 (≈ 37.2 µM) | 8 (≈ 18.6 µM) | – |
| C=CCn1c(-c2ccc(Oc3ccccc3)cc2)nc2cc(C)c(C)cc21 [12d, 1-Allyl-5,6-dimethyl-2-(4-phenoxyphenyl)-1H-benzo[d]imidazole] | 5.43 | 8 (≈ 22.6 µM) | 4 (≈ 11.3 µM) | – |
| C#CCn1c(-c2ccc(Oc3ccccc3)cc2)nc2cc(C(F)(F)F)ccc21 [12e, 2-(4-Phenoxyphenyl)-1-(prop-2-yn-1-yl)-5-(trifluoromethyl)-1H-benzo[d]imidazole] | 4.83 | 32 (≈ 81.6 µM) | 16 (≈ 40.8 µM) | – |
| C=CCn1c(-c2ccc(Oc3cccnc3)cc2)nc2cc(C(F)(F)F)ccc21 [12g, 1-Allyl-2-(4-(pyridin-3-yloxy)phenyl)-5-(trifluoromethyl)-1H-benzo[d]imidazole] | < 4.70 | > 50 | 32 (≈ 80.9 µM) | – |
| C=CCn1c(-c2ccc(Oc3ccccc3)nc2)nc2cc(C(F)(F)F)ccc21 [12h, 1-Allyl-2-(6-phenoxypyridin-3-yl)-5-(trifluoromethyl)-1H-benzo[d]imidazole] | < 4.70 | > 50 | 32 (≈ 80.9 µM) | – |
| C=CCn1c(/C=C/c2ccccc2)nc2ccccc21 [F0414, (E)-1-Allyl-2-styryl-1H-benzo[d]imidazole, reference compound] | < 4.70 | 8 (≈ 30.7 µM) | 2 (≈ 7.68 µM) | – |
| CS(=O)(=O)c1ccc([C@@H](O)[C@@H](CF)NC(=O)C(Cl)Cl)cc1 [Florfenicol, reference compound] | – | 4 (≈ 11.2 µM) | 16 (≈ 44.7 µM) | – |
| CN(C)[C@@H]1C(O)=C(C(N)=O)C(=O)[C@@]2(O)C(O)=C3C(=O)c4c(O)cccc4[C@@](C)(O)[C@H]3[C@H](O)[C@@H]12 [Oxytetracycline, reference compound] | – | 1 (≈ 2.17 µM) | 4 (≈ 8.69 µM) | – |
| COc1cc(NS(=O)(=O)c2ccc(N)cc2)nc(OC)n1 [Sulfadimethoxine, reference compound] | – | > 50 | 12.5 (≈ 40.3 µM) | MIC N. seriolae [1]: >50 µg/mL |
| Cc1ccnc(NS(=O)(=O)c2ccc(N)cc2)n1 [Sulfamerazin, reference compound] | – | – | – | MIC N. seriolae [1]: >50 µg/mL; MIC N. seriolae ([1]; listed as sulfamerazin): > 50 µg/mL; MIC N. salmonicida [2]: >50 µg/mL |
| (E)-1-Allyl-2-styryl-1H-benzo[d]imidazol-5-yl acetate [4f] | 4.74 | – | – | MIC N. seriolae [1]: >50 µg/mL; MIC N. salmonicida [2]: 32 µg/mL |
| (E)-1-Allyl-2-styryl-1H-benzo[d]imidazole [4a] | 5.58 | – | – | MIC N. seriolae [1]: 4 µg/mL; MIC N. salmonicida [2]: 2 µg/mL |
| (E)-1-Allyl-2-styryl-1H-benzo[d]imidazole [4c] | 5.42 | – | – | MIC N. seriolae [1]: >50 µg/mL; MIC N. salmonicida [2]: 16 µg/mL |
